Patent EP0423247B1, “COUMAMIDINE COMPOUNDS” (ABBOTT LABORATORIES, priority 1988, dated 1990)
≈ marks a conversion by molar mass, not a printed value.

Tests used:
[1] = Solubility (qualitative description); type: physicochemical
Text: High resolution, positive ion fast atom bombardment (FAB) mass spectrometry established identical molecular ions or m/z 835.3576 for the two isomers corresponding to a formula of C₃₃H₄₉N₁₃0₁₃ (calc. 835.3577). UV lambdamax=286 nm. The coumamidine gamma 1 isomer has an imidazolidone ring at the 2 and 3 position of the terminal sugar, and the coumamidine gamma 2 isomer has an oxazolidone ring at positions 3 and 4 of the terminal sugar.

[2] = tested on: Pseudomonas aeruginosa CFS 389; assay: MIC, agar dilution method (Brain Heart Infusion agar); type: cell-based; details: CFS389, Pseudomonas aeruginosa CFS 389, grown aerobically, BHI agar, read-out: Minimum inhibitory concentrations
Protocol: (§1) Minimum inhibitory concentration (MIC) was determined by the agar dilution method, described hereinbelow, using Brain Heart Infusion agar.
(§2) Twelve petri dishes were prepared, each containing successive aqueous 2-fold dilutions of the test compounds mixed with 10 mL of sterilized Brain Heart Infusion (BHI) agar.
(§3) The MIC was defined as the lowest concentration of test compound yielding no growth, a slight haze, or sparsely isolated colonies on the inoculum spot as compared to the growth control containing no test compound.

[3] = tested on: Campylobacter jejuni ATTC 29428; assay: as above; type: cell-based; details: ATTC29428, Campylobacter jejuni ATTC 29428, grown aerobically, BHI agar, read-out: Minimum inhibitory concentrations
Protocol: as §1, §2, §3

[4] = tested on: Neisseria gonorrhoeae 35FAMPI; assay: as above; type: cell-based; details: grown aerobically, BHI agar, read-out: Minimum inhibitory concentrations
Protocol: as §1, §2, §3

[5] = tested on: Haemophilus influenzae 503B; assay: as above; type: cell-based; details: grown aerobically, BHI agar, read-out: Minimum inhibitory concentrations
Protocol: as §1, §2, §3

[6] = tested on: Pseudomonas aeruginosa A5007; assay: as above; type: cell-based; details: Pseudomonas aeruginosa A5007, grown aerobically, BHI agar, read-out: Minimum inhibitory concentrations
Protocol: as §1, §2, §3

[7] = tested on: Serratia marcescens CMX 657E; assay: as above; type: cell-based; details: CMX657E, grown aerobically, BHI agar, read-out: Minimum inhibitory concentrations
Protocol: as §1, §2, §3

[8] = tested on: Providencia stuartii CMX 640; assay: as above; type: cell-based; details: CMX640, Providencia stuartii CMX 640, grown aerobically, BHI agar, read-out: Minimum inhibitory concentrations
Protocol: as §1, §2, §3

[9] = tested on: Klebsiella pneumoniae ATCC 8045; assay: as above; type: cell-based; details: ATCC8045, Klebsiella pneumoniae ATCC 8045, grown aerobically, BHI agar, read-out: Minimum inhibitory concentrations
Protocol: as §1, §2, §3

[10] = tested on: Serratia marcescens CMX 740C; assay: as above; type: cell-based; details: CMX740C, grown aerobically, BHI agar, read-out: Minimum inhibitory concentrations
Protocol: as §1, §2, §3

[11] = tested on: Streptococcus pyogenes 930 CONST; assay: as above; type: cell-based; details: grown aerobically, BHI agar, read-out: Minimum inhibitory concentrations
Protocol: as §1, §2, §3

[12] = tested on: Streptococcus bovis A 5169; assay: as above; type: cell-based; details: Streptococcus equinus, A5169, Streptococcus bovis A 5169, grown aerobically, BHI agar, read-out: Minimum inhibitory concentrations
Protocol: as §1, §2, §3

[13] = tested on: Proteus vulgaris ABBOTT JJ; assay: as above; type: cell-based; details: grown aerobically, BHI agar, read-out: Minimum inhibitory concentrations
Protocol: as §1, §2, §3

Pseudomonas cepacia 296I = assay: as above; type: cell-based; details: Burkholderia cepacia, grown aerobically, BHI agar, read-out: Minimum inhibitory concentrations
Protocol: as §1, §2, §3

[14] = tested on: Enterobacter aerogenes ATCC 13048; assay: as above; type: cell-based; details: Klebsiella aerogenes, ATCC13048, Enterobacter aerogenes ATCC 13048, grown aerobically, BHI agar, read-out: Minimum inhibitory concentrations
Protocol: as §1, §2, §3

[15] = tested on: Streptococcus pyogenes EES 614; assay: as above; type: cell-based; details: EES614, Streptococcus pyogenes EES 614, grown aerobically, BHI agar, read-out: Minimum inhibitory concentrations
Protocol: as §1, §2, §3

[16] = tested on: Neisseria gonorrhoeae CMX 591; assay: as above; type: cell-based; details: CMX591, Neisseria gonorrhoeae CMX 591, grown aerobically, BHI agar, read-out: Minimum inhibitory concentrations
Protocol: as §1, §2, §3

Escherichia coli SS = assay: as above; type: cell-based; details: grown aerobically, BHI agar, read-out: Minimum inhibitory concentrations
Protocol: as §1, §2, §3

[17] = tested on: Pseudomonas aeruginosa CFS 387C; assay: as above; type: cell-based; details: CFS387C, grown aerobically, BHI agar, read-out: Minimum inhibitory concentrations
Protocol: as §1, §2, §3

[18] = tested on: Enterococcus faecium ATCC 8043; assay: as above; type: cell-based; details: ATCC8043, Enterococcus faecium ATCC 8043, grown aerobically, BHI agar, read-out: Minimum inhibitory concentrations
Protocol: as §1, §2, §3

[19] = tested on: Staphylococcus aureus ATCC 6538P; assay: as above; type: cell-based; details: ATCC6538P, grown aerobically, BHI agar, read-out: Minimum inhibitory concentrations
Protocol: as §1, §2, §3

[20] = tested on: Pseudomonas aeruginosa BMH 10; assay: as above; type: cell-based; details: BMH10, Pseudomonas aeruginosa BMH 10, grown aerobically, BHI agar, read-out: Minimum inhibitory concentrations
Protocol: as §1, §2, §3

[21] = tested on: Staphylococcus aureus CMX 686B; assay: as above; type: cell-based; details: CMX686B, grown aerobically, BHI agar, read-out: Minimum inhibitory concentrations
Protocol: as §1, §2, §3

[22] = tested on: Proteus mirabilis CMX 704F; assay: as above; type: cell-based; details: CMX704F, grown aerobically, BHI agar, read-out: Minimum inhibitory concentrations
Protocol: as §1, §2, §3

[23] = tested on: Streptococcus agalactiae CMX 508; assay: as above; type: cell-based; details: CMX508, Streptococcus agalactiae CMX 508, grown aerobically, BHI agar, read-out: Minimum inhibitory concentrations
Protocol: as §1, §2, §3

[24] = tested on: Actinetobacter SP CMX 669; assay: as above; type: cell-based; details: Actinetobacter SP CMX 669, grown aerobically, BHI agar, read-out: Minimum inhibitory concentrations
Protocol: as §1, §2, §3

Staphylococcus aureus 45 = assay: as above; type: cell-based; details: Staphylococcus aureus 45, grown aerobically, BHI agar, read-out: Minimum inhibitory concentrations
Protocol: as §1, §2, §3

[25] = tested on: Pseudomonas aeruginosa ATCC 27853; assay: as above; type: cell-based; details: ATCC27853, Pseudomonas aeruginosa ATCC 27853, grown aerobically, BHI agar, read-out: Minimum inhibitory concentrations
Protocol: as §1, §2, §3

Escherichia coli JUHL = assay: as above; type: cell-based; details: grown aerobically, BHI agar, read-out: Minimum inhibitory concentrations
Protocol: as §1, §2, §3

[26] = tested on: Enterobacter cloacae CMX 650A; assay: as above; type: cell-based; details: CMX650A, grown aerobically, BHI agar, read-out: Minimum inhibitory concentrations
Protocol: as §1, §2, §3

[27] = tested on: Pseudomonas aeruginosa K799/WT; assay: as above; type: cell-based; details: grown aerobically, BHI agar, read-out: Minimum inhibitory concentrations
Protocol: as §1, §2, §3

[28] = tested on: Staphylococcus epidermidis 3519; assay: as above; type: cell-based; details: Staphylococcus epidermidis 3519, grown aerobically, BHI agar, read-out: Minimum inhibitory concentrations
Protocol: as §1, §2, §3

[29] = tested on: Staphylococcus aureus A5177; assay: as above; type: cell-based; details: Staphylococcus aureus A5177, grown aerobically, BHI agar, read-out: Minimum inhibitory concentrations
Protocol: as §1, §2, §3

solubility in dimethylsulfoxide [1]	solubility in methanol [1]	solubility in water [1]	MIC [2]	MIC [6]	MIC [7]	MIC [8]	MIC [9]	MIC [10]	MIC [11]	MIC [12]	MIC [13]	MIC (Pseudomonas cepacia 296I)	MIC [14]	MIC [15]	MIC (Escherichia coli SS)	MIC [17]	MIC [18]	MIC [19]	MIC [20]	SMILES	other results
readily soluble	slightly soluble	readily soluble	8 µg/mL (≈ 9.57 µM)	8 µg/mL (≈ 9.57 µM)	1 µg/mL (≈ 1.2 µM)	0.5 µg/mL (≈ 0.598 µM)	0.25 µg/mL (≈ 0.299 µM)	2 µg/mL (≈ 2.39 µM)	2 µg/mL (≈ 2.39 µM)	16 µg/mL (≈ 19.1 µM)	2 µg/mL (≈ 2.39 µM)	32 µg/mL (≈ 38.3 µM)	1 µg/mL (≈ 1.2 µM)	4 µg/mL (≈ 4.79 µM)	0.5 µg/mL (≈ 0.598 µM)	8 µg/mL (≈ 9.57 µM)	16 µg/mL (≈ 19.1 µM)	0.25 µg/mL (≈ 0.299 µM)	0.25 µg/mL (≈ 0.299 µM)	CC1OC(Oc2ccc(C=CC(=O)NCCC(=N)N)cc2)C(NC(=N)N)C(O)C1NC(=O)NC1OCC(OC2OCC(O)C3NC(=O)N(C(N)=O)C23)C(O)C1NC(N)=O (stereo not drawn) [gamma 1, coumamidine gamma 1]	MIC [3]: 0.06 µg/mL (≈ 0.0718 µM); MIC [4]: 0.5 µg/mL (≈ 0.598 µM); MIC [5]: 0.03 µg/mL (≈ 0.0359 µM); MIC [16]: 0.5 µg/mL (≈ 0.598 µM); MIC [21]: 0.25 µg/mL (≈ 0.299 µM); MIC [22]: 1 µg/mL (≈ 1.2 µM); MIC [23]: 8 µg/mL (≈ 9.57 µM); MIC [24]: 0.25 µg/mL (≈ 0.299 µM); MIC (Staphylococcus aureus 45): 0.5 µg/mL (≈ 0.598 µM); MIC [25]: 8 µg/mL (≈ 9.57 µM); MIC (Escherichia coli JUHL): 0.25 µg/mL (≈ 0.299 µM); MIC [26]: 4 µg/mL (≈ 4.79 µM); MIC [27]: 8 µg/mL (≈ 9.57 µM); MIC [28]: 0.5 µg/mL (≈ 0.598 µM); MIC [29]: 1 µg/mL (≈ 1.2 µM)
readily soluble	slightly soluble	readily soluble	8 µg/mL (≈ 9.57 µM)	16 µg/mL (≈ 19.1 µM)	2 µg/mL (≈ 2.39 µM)	2 µg/mL (≈ 2.39 µM)	0.5 µg/mL (≈ 0.598 µM)	2 µg/mL (≈ 2.39 µM)	1 µg/mL (≈ 1.2 µM)	32 µg/mL (≈ 38.3 µM)	4 µg/mL (≈ 4.79 µM)	> 32 µg/mL	2 µg/mL (≈ 2.39 µM)	1 µg/mL (≈ 1.2 µM)	1 µg/mL (≈ 1.2 µM)	16 µg/mL (≈ 19.1 µM)	32 µg/mL (≈ 38.3 µM)	0.5 µg/mL (≈ 0.598 µM)	0.5 µg/mL (≈ 0.598 µM)	CC1OC(Oc2ccc(C=CC(=O)NCCC(=N)N)cc2)C(NC(=N)N)C(O)C1NC(=O)NC1OCC(OC2OCC3OC(=O)NC3C2NC(N)=O)C(O)C1NC(N)=O (stereo not drawn) [gamma 2, coumamidine gamma 2]	MIC [21]: 0.5 µg/mL (≈ 0.598 µM); MIC [22]: 1 µg/mL (≈ 1.2 µM); MIC [23]: 16 µg/mL (≈ 19.1 µM); MIC [24]: 4 µg/mL (≈ 4.79 µM); MIC (Staphylococcus aureus 45): 1 µg/mL (≈ 1.2 µM); MIC [25]: 8 µg/mL (≈ 9.57 µM); MIC (Escherichia coli JUHL): 0.5 µg/mL (≈ 0.598 µM); MIC [26]: 4 µg/mL (≈ 4.79 µM); MIC [27]: 16 µg/mL (≈ 19.1 µM); MIC [28]: 1 µg/mL (≈ 1.2 µM); MIC [29]: 1 µg/mL (≈ 1.2 µM)
